Laboratory results: publication PMC10177510, “A Multicenter, Open-Label, Phase I/II Study of FN-1501 in Patients with Advanced Solid Tumors” (Cancers, 2023)

Tested on: advanced solid tumors
Experiment: Anti-tumor activity in patients (RECIST best response, PFS, OS)
Assay type: in vivo, human
Experimental: Among 64 pts enrolled in the trial, 16 failed screening and 48 (75%) were treated with FN-1501 at one of the dose levels tested. Eligible pts were ≥18 years of age with (a) relapsed or refractory AML that had exhausted or was ineligible for therapeutic options, or with ≥5% blasts in the bone marrow according to World Health Organization (WHO) 2016 criteria; or (b) solid tumors evaluable per RECIST v1.1 that had exhausted (or were ineligible for) therapeutic options likely to convey clinical benefit. Other inclusion criteria included Eastern Cooperative Oncology Group (ECOG) performance status (PS) of <2 and life expectancy ≥3 months. Pts with a clinically controlled central nervous system (CNS) tumor or metastasis and adequate organ function were eligible to participate. Ongoing use of strong CYP3A inhibitors or inducers was exclusionary unless participants were willing and able to change to use of an equivalent medication without this profile. Other exclusion criteria included current or recent major surgical procedures, anticancer therapy (chemotherapy, immunotherapy), biologic, live virus vaccine, or investigational therapy within 21 days prior to initiation of the study treatment. For patients in the AML cohort, acute promyelocytic leukemia (APML), chronic myelogenous leukemia in blast crisis (BCR-ABL), or active CNS leukemia were exclusionary.
Descriptive statistics were used for all safety, PK, and efficacy parameters. Data were summarized using descriptive statistics (number of pts, mean, median, standard deviation, minimum, and maximum) for continuous variables and using frequencies and percentages for discrete variables. Time-to-event variables were summarized using Kaplan–Meier methods and figures for the estimated median time.

CN1CCN(Cc2ccc(NC(=O)c3[nH]ncc3Nc3ncnc4[nH]ccc34)cc2)CC1 [FN-1501]
100.0%: DCR (15 mg/day, N = 3, ITT) | DCR (30 mg/day, N = 3, ITT)
5.4 months: Median overall survival (22.5 mg/day, N = 4, ITT)
20.0%: DCR (10 mg/day, N = 5, ITT) | Progression Free Survival Rate at 3 months (10 mg/day, N = 5, ITT)
25%: Patients with best response of partial response (PR) by RECIST (40 mg/day cohort, efficacy evaluable population)
3.4 months: Median progression-free survival (30 mg/day, N = 3, ITT)
2 (50): Progressive Disease, best RECIST response, n (%) (22.5 mg/day, N = 4, ITT) | Stable Disease, best RECIST response, n (%) (22.5 mg/day, N = 4, ITT)
50.0%: Landmark Progression Free Survival Rate at 3 months (Table S6, Overall Survival) (5 mg/day, N = 3, ITT) | DCR (22.5 mg/day, N = 4, ITT) | Landmark Progression Free Survival Rate at 3 months (Table S6, Overall Survival) (22.5 mg/day, N = 4, ITT) | Landmark Progression Free Survival Rate at 6 months (Table S6, Overall Survival) (22.5 mg/day, N = 4, ITT) | Progression Free Survival Rate at 3 months (22.5 mg/day, N = 4, ITT) | Progression Free Survival Rate at 6 months (22.5 mg/day, N = 4, ITT) | Progression Free Survival Rate at 3 months (30 mg/day, N = 3, ITT) | DCR (40 mg/day, N = 4, ITT)
4.1 months: Median progression-free survival (15 mg/day, N = 3, ITT)
1.7 months: Median progression-free survival (5 mg/day, N = 3, ITT)
60.0%: Landmark Progression Free Survival Rate at 3 months (Table S6, Overall Survival) (10 mg/day, N = 5, ITT) | Landmark Progression Free Survival Rate at 6 months (Table S6, Overall Survival) (10 mg/day, N = 5, ITT) | Landmark Progression Free Survival Rate at 9 months (Table S6, Overall Survival) (10 mg/day, N = 5, ITT) | Landmark Progression Free Survival Rate at 12 months (Table S6, Overall Survival) (10 mg/day, N = 5, ITT)
5.0 months: Median progression-free survival (22.5 mg/day, N = 4, ITT)
37.5%: Landmark Progression Free Survival Rate at 3 months (Table S6, Overall Survival) (2.5 mg/day, N = 4, ITT) | Landmark Progression Free Survival Rate at 6 months (Table S6, Overall Survival) (2.5 mg/day, N = 4, ITT) | Landmark Progression Free Survival Rate at 9 months (Table S6, Overall Survival) (2.5 mg/day, N = 4, ITT) | Landmark Progression Free Survival Rate at 12 months (Table S6, Overall Survival) (2.5 mg/day, N = 4, ITT)
33.3%: Progression Free Survival Rate at 6 months (15 mg/day, N = 3, ITT) | Progression Free Survival Rate at 3 months (40 mg/day, N = 4, ITT)
2.0 months: Median overall survival (2.5 mg/day, N = 4, ITT)
2.6 months: Median overall survival (5 mg/day, N = 3, ITT) | Median progression-free survival (40 mg/day, N = 4, ITT)
3: Progressive Disease, best RECIST response, n (%) (2.5 mg/day, N = 4, ITT)
1: Partial Response, best RECIST response, n (%) (40 mg/day, N = 4, ITT)
2: Progressive Disease, best RECIST response, n (%) (5 mg/day, N = 3, ITT) | Progressive Disease, best RECIST response, n (%) (10 mg/day, N = 5, ITT)
75.0%: Landmark Progression Free Survival Rate at 3 months (Table S6, Overall Survival) (40 mg/day, N = 4, ITT) | Landmark Progression Free Survival Rate at 6 months (Table S6, Overall Survival) (40 mg/day, N = 4, ITT) | Landmark Progression Free Survival Rate at 9 months (Table S6, Overall Survival) (40 mg/day, N = 4, ITT) | Landmark Progression Free Survival Rate at 12 months (Table S6, Overall Survival) (40 mg/day, N = 4, ITT)
25.0%: Landmark Progression Free Survival Rate at 9 months (Table S6, Overall Survival) (22.5 mg/day, N = 4, ITT) | Landmark Progression Free Survival Rate at 12 months (Table S6, Overall Survival) (22.5 mg/day, N = 4, ITT) | Progression Free Survival Rate at 9 months (22.5 mg/day, N = 4, ITT) | Progression Free Survival Rate at 12 months (22.5 mg/day, N = 4, ITT) | ORR (40 mg/day, N = 4, ITT)
1.8 months: Median progression-free survival (2.5 mg/day, N = 4, ITT)
1.4 months: Median progression-free survival (10 mg/day, N = 5, ITT)
0.0%: DCR (2.5 mg/day, N = 4, ITT) | ORR (2.5 mg/day, N = 4, ITT) | Progression Free Survival Rate at 3 months (2.5 mg/day, N = 4, ITT) | Progression Free Survival Rate at 6 months (2.5 mg/day, N = 4, ITT) | Progression Free Survival Rate at 9 months (2.5 mg/day, N = 4, ITT) | Progression Free Survival Rate at 12 months (2.5 mg/day, N = 4, ITT) | DCR (5 mg/day, N = 3, ITT) | Landmark Progression Free Survival Rate at 6 months (Table S6, Overall Survival) (5 mg/day, N = 3, ITT) | Landmark Progression Free Survival Rate at 9 months (Table S6, Overall Survival) (5 mg/day, N = 3, ITT) | Landmark Progression Free Survival Rate at 12 months (Table S6, Overall Survival) (5 mg/day, N = 3, ITT) | ORR (5 mg/day, N = 3, ITT) | Progression Free Survival Rate at 3 months (5 mg/day, N = 3, ITT) | Progression Free Survival Rate at 6 months (5 mg/day, N = 3, ITT) | Progression Free Survival Rate at 9 months (5 mg/day, N = 3, ITT) | Progression Free Survival Rate at 12 months (5 mg/day, N = 3, ITT) | ORR (10 mg/day, N = 5, ITT) | Progression Free Survival Rate at 6 months (10 mg/day, N = 5, ITT) | Progression Free Survival Rate at 9 months (10 mg/day, N = 5, ITT) | Progression Free Survival Rate at 12 months (10 mg/day, N = 5, ITT) | ORR (15 mg/day, N = 3, ITT) | Progression Free Survival Rate at 9 months (15 mg/day, N = 3, ITT) | Progression Free Survival Rate at 12 months (15 mg/day, N = 3, ITT) | ORR (22.5 mg/day, N = 4, ITT) | ORR (30 mg/day, N = 3, ITT) | Progression Free Survival Rate at 6 months (30 mg/day, N = 3, ITT) | Progression Free Survival Rate at 9 months (30 mg/day, N = 3, ITT) | Progression Free Survival Rate at 12 months (30 mg/day, N = 3, ITT) | Progression Free Survival Rate at 6 months (40 mg/day, N = 4, ITT) | Progression Free Survival Rate at 9 months (40 mg/day, N = 4, ITT) | Progression Free Survival Rate at 12 months (40 mg/day, N = 4, ITT)
1 (20): Stable Disease, best RECIST response, n (%) (10 mg/day, N = 5, ITT)
0: Complete Response, best RECIST response, n (%) (2.5 mg/day, N = 4, ITT) | Partial Response, best RECIST response, n (%) (2.5 mg/day, N = 4, ITT) | Stable Disease, best RECIST response, n (%) (2.5 mg/day, N = 4, ITT) | Complete Response, best RECIST response, n (%) (5 mg/day, N = 3, ITT) | Partial Response, best RECIST response, n (%) (5 mg/day, N = 3, ITT) | Stable Disease, best RECIST response, n (%) (5 mg/day, N = 3, ITT) | Complete Response, best RECIST response, n (%) (10 mg/day, N = 5, ITT) | Partial Response, best RECIST response, n (%) (10 mg/day, N = 5, ITT) | Complete Response, best RECIST response, n (%) (15 mg/day, N = 3, ITT) | Partial Response, best RECIST response, n (%) (15 mg/day, N = 3, ITT) | Progressive Disease, best RECIST response, n (%) (15 mg/day, N = 3, ITT) | Complete Response, best RECIST response, n (%) (22.5 mg/day, N = 4, ITT) | Partial Response, best RECIST response, n (%) (22.5 mg/day, N = 4, ITT) | Complete Response, best RECIST response, n (%) (30 mg/day, N = 3, ITT) | Partial Response, best RECIST response, n (%) (30 mg/day, N = 3, ITT) | Progressive Disease, best RECIST response, n (%) (30 mg/day, N = 3, ITT) | Complete Response, best RECIST response, n (%) (40 mg/day, N = 4, ITT)
3 (100): Stable Disease, best RECIST response, n (%) (15 mg/day, N = 3, ITT) | Stable Disease, best RECIST response, n (%) (30 mg/day, N = 3, ITT)
